The values below are quoted from earlier work in patent publication US20050272755A1, “Method for treating abnormal cell growth” (priority 2004, published 2005).

Structures can show the parent of a compound that is named as a salt. Where two headings read alike, the source gives them in different places.

The subject of one data set is colorectal cancer. Particulars: colorectal cancer patients resistant to 5-FU.
Data set [1] has as its system metastatic colorectal cancer.

Take `CCc1c2c(nc3ccc(OC(=O)N4CCC(N5CCCCC5)CC4)cc13)-c1cc3c(c(=O)n1C2)COC(=O)[C@]3(O)CC` [CPT-11, irinotecan hydrochloride trihydrate]: in the data set with colorectal cancer, the “survival compared with 5-FU/FA best infusional regimens” value was “longer survival” and the “survival compared with supportive care only” value is on record as “longer survival”.
In the case of `CCCCCOC(=O)Nc1nc(=O)n([C@@H]2O[C@H](C)[C@@H](O)[C@H]2O)cc1F` [capecitabine, 5′-deoxy-5-fluoro-N-[(pentyloxy)-carbonyl]-cytidine], the results for the median survival in data set [1] (European trial) and in data set [1] (US trial) were 13.3 months and 12.5 months, respectively. In data set [1] (capecitabine treatment arms), the “grade 3-4 toxicity: diarrhea” value is recorded as 14%. The “grade 3-4 toxicity: hand-foot syndrome” value in data set [1] (capecitabine treatment arms) is reported as 17%. Moreover, the Overall response rate in data set [1] (first of the two phase III studies ('respectively'; Europe N=602 named first), capecitabine 2500 mg/m^2/day for 14 days every 3 weeks) was 21%; in data set [1] (second of the two phase III studies ('respectively'; US N=605 named second)), 21%.
